How the values were obtained:
[1] = target: human C5 complement protein (Homo sapiens, UniProt P01031); assay: Surface plasmon resonance (SPR), immobilized human C5, 37° C. (Example 12, Table 21); type: binding; conditions: where a range of compound concentrations were analyzed, the lowest value obtained
Excerpt: (§1) Compound CU0136 is a racemic mixture of Compound CU0186 and CU0187. Numbers in parenthesis following compound numbers indicate alternate enantiomers (as distinguished by retention time during chromatographical separation).

Human C5 = target: T1, Human C5 (Homo sapiens, UniProt P01031); assay: Red blood cell (RBC) hemolysis assay, luminescent (Example 13, Table 22); type: cell-based; conditions: sheep EA cells, […] C5-depleted human serum, 0.5 nM human C5, 1 hour 37° C., luminescence; further: 1.5% C5-depleted human serum
T1 construct: purchased Complement Technology
T1 sequence (P01031 19-1676): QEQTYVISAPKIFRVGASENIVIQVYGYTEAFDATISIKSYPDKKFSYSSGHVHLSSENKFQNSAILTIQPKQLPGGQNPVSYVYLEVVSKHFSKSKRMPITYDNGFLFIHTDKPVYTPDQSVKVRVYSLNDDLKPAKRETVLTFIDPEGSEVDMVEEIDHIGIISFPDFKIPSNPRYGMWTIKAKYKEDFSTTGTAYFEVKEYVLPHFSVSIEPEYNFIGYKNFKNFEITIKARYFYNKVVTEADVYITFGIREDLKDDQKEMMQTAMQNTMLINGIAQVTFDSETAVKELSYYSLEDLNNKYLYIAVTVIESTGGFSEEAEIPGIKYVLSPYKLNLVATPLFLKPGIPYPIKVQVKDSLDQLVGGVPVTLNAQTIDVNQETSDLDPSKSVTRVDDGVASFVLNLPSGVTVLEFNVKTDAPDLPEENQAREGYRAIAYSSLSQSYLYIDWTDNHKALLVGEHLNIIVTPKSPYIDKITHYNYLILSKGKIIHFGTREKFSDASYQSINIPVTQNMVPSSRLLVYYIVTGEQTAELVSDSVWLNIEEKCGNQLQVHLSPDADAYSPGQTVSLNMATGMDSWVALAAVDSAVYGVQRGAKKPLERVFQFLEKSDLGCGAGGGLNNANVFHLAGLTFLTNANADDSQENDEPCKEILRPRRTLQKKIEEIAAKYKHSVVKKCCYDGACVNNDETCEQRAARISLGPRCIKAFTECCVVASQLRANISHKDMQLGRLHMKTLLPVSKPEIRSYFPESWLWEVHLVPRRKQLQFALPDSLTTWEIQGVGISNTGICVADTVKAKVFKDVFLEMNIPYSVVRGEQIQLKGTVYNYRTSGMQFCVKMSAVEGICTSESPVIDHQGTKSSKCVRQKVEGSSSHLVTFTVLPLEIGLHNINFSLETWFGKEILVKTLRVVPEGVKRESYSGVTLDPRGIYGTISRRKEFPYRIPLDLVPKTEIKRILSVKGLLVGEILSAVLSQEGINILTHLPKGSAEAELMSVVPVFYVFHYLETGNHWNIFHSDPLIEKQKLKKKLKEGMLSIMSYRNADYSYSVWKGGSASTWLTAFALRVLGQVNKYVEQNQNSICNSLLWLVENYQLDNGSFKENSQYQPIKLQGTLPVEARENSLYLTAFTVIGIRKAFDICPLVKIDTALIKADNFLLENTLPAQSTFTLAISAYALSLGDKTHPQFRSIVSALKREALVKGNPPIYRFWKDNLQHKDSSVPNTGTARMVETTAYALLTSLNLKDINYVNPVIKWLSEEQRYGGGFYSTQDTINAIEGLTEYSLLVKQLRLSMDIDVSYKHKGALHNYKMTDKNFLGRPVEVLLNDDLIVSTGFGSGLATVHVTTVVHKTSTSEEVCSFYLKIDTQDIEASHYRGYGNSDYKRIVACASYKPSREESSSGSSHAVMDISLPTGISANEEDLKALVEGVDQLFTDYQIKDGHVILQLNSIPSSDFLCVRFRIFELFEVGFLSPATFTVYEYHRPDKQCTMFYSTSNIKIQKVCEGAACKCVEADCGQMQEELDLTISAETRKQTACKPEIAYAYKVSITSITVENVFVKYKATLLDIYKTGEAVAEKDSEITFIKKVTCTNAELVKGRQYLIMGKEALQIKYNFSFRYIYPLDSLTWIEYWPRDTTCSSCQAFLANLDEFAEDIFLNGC
Excerpt: as §1

Chain of human C5 complement protein (P01031 19-1676): as above

| Kd [1] [nM] | SMILES | IC50 (Human C5) [nM] |
| --- | --- | --- |
| 3.8 | CCCCCOc1cc(N2CCCN(Cc3cccc4c3ccn4CC(=O)N3CCCC3)C2=O)ccc1OC [CU0235] | 29.4 |
| 8 | CCCCCOc1cc(N2CCCN(Cc3ccnc4c3ccn4CC(=O)N3CCOC(CN4CCCC4)C3)C2=O)ccc1OC (centres unmarked) [CU0051] | 45.9 |
| 3.4 | CCCC(F)(F)COc1cc(N2CCCN(Cc3ccc(CC(=O)N(C)C)cc3OC)C2=O)ccc1OC [CU0111] | 25.2 |
| 174 | CCCCCOc1cc(N2CCCN(Cc3cc(F)ccc3Cl)C2=O)ccc1OC [CU0014] | 77.6 |
| 7.8 | CCCCCOc1cc(N2CCCN(Cc3ccc(CC(=O)N(C)C)cc3Cl)C2=O)ccc1OC [CU0115] | 27.9 |
| 3 | CCCCCOc1cc(N2CCCN(Cc3cccc4c3ccn4C3CCN(C)C3=O)C2=O)ccc1OC (centres unmarked) [CU0020] | 17.2 |
| 6.5 | CCCCCOc1cc(N2CCCN(Cc3ccc(CCC(=O)N(CC)CC)cc3OC)C2=O)ccc1OC [CU0008] | 62.9 |
| 9 | CCCCCOc1cc(N2CCCN(Cc3ccnc4c3ccn4CC(=O)N3CCOC(CN(C)C)C3)C2=O)ccc1OC (centres unmarked) [CU0050] | 18 |
| 14 | CCCCCOc1cc(N2CCCN(Cc3ccnc4c3ccn4CC(=O)N3CCN(C)C(=O)C3)C2=O)ccc1OC [CU0060] | 40.3 |
| 816 | CCCCCOc1cc(N2CCN(Cc3cccc(F)c3Cl)C2=O)ccc1OC [CU0011] | 886 |
| 8.3 | CCCCCOc1cc(N2CCCN(Cc3ccc(CC(=O)N4CCCOCC4)cc3Cl)C2=O)ccc1OC [CU0117] | 32.5 |
| 2.9 | CCCCCOc1cc(N2CCCN(Cc3cccc4c3ccn4CC3(O)CCN(C)CC3)C2=O)ccc1OC [CU0022] | 17.1 |
| 29.5 | CCCCCOc1cc(N2CCN(Cc3ccccc3OC)C2=O)ccc1OC [CU0001] | 35.6 |
| 23 | CCCCCOc1cc(N2CCCN(Cc3ccnc4c3ccn4CC(=O)N3CCN(C4CC4)CC3)C2=O)ccc1OC [CU0056] | 48.8 |
| 370 | CCCCCOc1cc(N2CCCN(Cc3cccc4c3OCO4)C2=O)ccc1OC [CU0065] | 123 |
| 12.8 | CCCCCOc1cc(N2CCCN(Cc3ccc(CC(=O)N4CCCC4)cc3Cl)C2=O)ccc1OC [CU0118] | 35.3 |
| 5 | CCCCCOc1cc(N2CCCN(Cc3cccc4c3ccn4CC(=O)N3CCNC(=O)C3)C2=O)ccc1OC [CU0028] | 8.9 |
| 5 | CCCCCOc1cc(N2CCCN(Cc3cccc4c3ccn4CC(=O)N(C)C)C2=O)ccc1OC [CU0025] | 13.6 |
| 454 | CCCCCOc1cc(N2CCN(Cc3cc(F)ccc3Cl)C2=O)ccc1OC [CU0013] | 602 |
| 10.5 | CCCCCOc1cc(N2CCCN([C@@H](C)c3ccnc4c3ccn4CC(=O)N3CCCOCC3)C2=O)ccc1OC [CU0055] | 31.2 |
| 17 | CCCCCOc1cc(N2CCCN(Cc3ccnc4c3ccn4CC(=O)N3CC[C@@H](OC)C3)C2=O)ccc1OC [CU0041] | 55.2 |
| 9.6 | CCCCCOc1cc(N2CCCN(Cc3ccc(CCN(CC)CC)cc3OC)C2=O)ccc1OC [CU0122] | 17.1 |
| 106 | CCCCCOc1cc(N2CCN(Cc3ccnc4c3ccn4CC(=O)N3CCOCC3)C2=O)ccc1OC [CU0042] | 63.1 |
| 14 | CCCCCOc1cc(N2CCCN(Cc3cc(F)ccc3OC)C2=O)ccc1OC [CU0003] | 28.4 |
| 33.5 | CCCCCOc1cc(N2CCCN(Cc3ccnc4c3ccn4CC(=O)N(C)C)C2=O)ccc1OC [CU0035] | 30.8 |
| 18 | CCCCCOc1cc(N2CCCN(Cc3ccnc4c3ccn4CC(=O)N3CCN(CCOC)CC3)C2=O)ccc1OC [CU0057] | 22.4 |
| 10.5 | CCCCCOc1cc(N2CCN(Cc3ccc(C(C)(C)O)cc3OC)C2=O)ccc1OC [CU0004] | 12.1 |
| 13.5 | CCCCCOc1cc(N2CCCN(Cc3ccnc4c3ccn4CC(=O)N3CCNC(=O)C3)C2=O)ccc1OC [CU0059] | 32.9 |

Source: patent publication US20230115176A1 (Ra Pharmaceuticals, Inc., priority 2019, published 2023)
